Test results taken from PMC6478669, “Engineered Orthogonal Quorum Sensing Systems for Synthetic Gene Regulation in Escherichia coli” (Frontiers in Bioengineering and Biotechnology, 2019).
pEC50: −log10 of the molar value.

Key:
Experiment in all cases: GFP reporter induction, plate reader
Format in all cases: cell-based
LuxR [1] = biological target: T1, LuxR (Aliivibrio fischeri, UniProt P12746); settings: E. coli BL21 Receiver cells, LB, 37 °C, half-maximal max rate of GFP/OD600
T1 construct: Receiver plasmid in E. coli BL21, regulator cassette upstream of pLux-GFP; same synthetic system as Canton et al. 2008; acts as dimer
T1 sequence (P12746 1-250): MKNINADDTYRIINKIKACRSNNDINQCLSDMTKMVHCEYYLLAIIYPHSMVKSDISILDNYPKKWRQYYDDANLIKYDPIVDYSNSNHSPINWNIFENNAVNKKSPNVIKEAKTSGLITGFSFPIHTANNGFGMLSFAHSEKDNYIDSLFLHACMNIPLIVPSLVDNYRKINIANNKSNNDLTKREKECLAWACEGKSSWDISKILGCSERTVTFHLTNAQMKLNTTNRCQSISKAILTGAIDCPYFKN

AubR = biological target: T2, AubR (uncultured bacterium, UniProt K0J3R4); settings: read-out: Kmapprox
T2 construct: constitutively expressed from Receiver plasmid (pSB1A3) in E. coli BL21 with hybrid pAub promoter-GFP reporter; acts as dimer
T2 sequence (K0J3R4 1-267): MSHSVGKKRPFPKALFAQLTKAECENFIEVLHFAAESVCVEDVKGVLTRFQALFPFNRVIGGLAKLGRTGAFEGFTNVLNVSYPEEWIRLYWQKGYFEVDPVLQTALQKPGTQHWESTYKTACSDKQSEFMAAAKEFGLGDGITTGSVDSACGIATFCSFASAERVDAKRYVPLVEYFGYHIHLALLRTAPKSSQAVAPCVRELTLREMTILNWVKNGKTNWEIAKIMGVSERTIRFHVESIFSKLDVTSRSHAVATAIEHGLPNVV

LasR = biological target: T3, LasR (Pseudomonas aeruginosa, UniProt P25084); settings: E. coli BL21 Receiver cells, LB, 37 °C, half-maximal max rate of GFP/OD600
T3 construct: constitutively expressed from Receiver plasmid (pSB1A3) in E. coli BL21 with hybrid pLas promoter-GFP reporter; acts as dimer
T3 sequence (P25084 whole entry): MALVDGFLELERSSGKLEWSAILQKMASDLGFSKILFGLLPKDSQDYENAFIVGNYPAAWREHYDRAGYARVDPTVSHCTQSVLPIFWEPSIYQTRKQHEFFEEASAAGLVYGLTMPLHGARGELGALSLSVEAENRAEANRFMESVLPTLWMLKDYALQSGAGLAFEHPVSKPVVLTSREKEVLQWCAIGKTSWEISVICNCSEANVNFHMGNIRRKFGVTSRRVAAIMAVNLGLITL

LuxR [2] = biological target: T1, LuxR; settings: E. coli BL21 Receiver cells, LB, 37 °C, half-maximal max rate of GFP/OD600; unreliable (little to no response without oxo group)

SMILES | Kmapprox (LuxR [1]) | pEC50 (AubR) | also measured
CCCCCC(=O)CC(=O)N[C@H]1CCOC1=O [3-oxo-C8] | ~ between 1.00E-7 and 1.00E-8 M |  | 
CCCCCCCCCC(=O)CC(=O)N[C@H]1CCOC1=O [3-oxo-C12 HSL] |  | 7.00 | 
CCCCCCCCCCCC(=O)CC(=O)N[C@H]1CCOC1=O [3-oxo-C14 HSL] | ~ between 1.00E-8 and 1.00E-7 M |  | Kmapprox (LasR): ~ between 1.00E-9 and 1.00E-8 M
CCCC(=O)N[C@H]1CCOC1=O [C4-HSL] |  |  | Kmapprox (LuxR [2]): ~ 1.0E-6–1.0E-5 M
CCCCCCCCCCCC(=O)N[C@H]1CCOC1=O [C12 HSL] |  | 8.30 | 
